Entries after “also recorded” stand apart in the source; their conditions may differ.

The values that follow come from patent US20250161248A1, “Treating Chronic Myelomonocytic Leukemia with CXCL8 Receptor Inhibitors” (Institut Gustave Roussy, priority 2023, published 2025).

In series [1] the test system is wildtype CD34+ cells (cord blood, healthy donor bone marrow). The series can be described thus: CD34+ liquid culture, cell output/proliferation (healthy donor cells). The format is cell-based, human. The conditions noted are these: for proliferation of wildtype CD34+ cells in liquid culture: inhibitor 10 uM in combination with CXCL8 10 ng/mL, FIG. 12E. On the procedure:
(§1) Reagents, CXCR1/2 inhibitors Reparixin and Ladarixin were from MedChemTronica and Clinisciences, respectively, dissolved in dimethylsulfoxide (DMSO). Stem cell factor recombinant (SCF), interleukin-3 recombinant (IL-3), thrombopoietin recombinant (TPO), Fms-like tyrosine kinase 3 recombinant (FLT-3) and Interleukin 8 (IL-8 or CXCL8) were from Peprotech.
(§2) CD34^+ cultures, CD34^+ cells were cultured for 72 h at 1×10^5 cells/ml in complete MEM-alpha medium, SCF (50 ng/mL), IL-3 (10 ng/mL), TPO (10 ng/mL) and FLT-3 (50 ng/mL […]), to which CXCL8 was added in a 37° C. incubator with 5% CO2. Cells were counted after Trypan blue staining. For methylcellulose assays, CD34+ cells were plated in duplicate, at 500 cells with 1 mL complete methylcellulose (MethoCult™ H4034 Optimum, Stem cell) with indicated doses of CXCL8. Colonies were enumerated and phenotyped at day 14.

In series [2] the test system is neutrophil-dependent airway inflammation. The note with it: mice; cited from earlier work.
In series [3] the test system is uveal melanoma. The note with it: animal model of uveal melanoma; cited from earlier work.
For series [4], the system named is healthy donor CD34+ cells (cord blood, bone marrow). The series can be described thus: Methylcellulose colony formation assay (healthy donor cells). The format is cell-based, human. The note with it: for colony forming capacity of wildtype CD34+ cells (total colony output): inhibitor 10 mM (so in the source) in combination with CXCL8 10 ng/mL, FIG. 6F. How it is done:
as §1, §2

The subject of series [5] is pancreatic ductal adenocarcinoma (PDAC). The conditions noted are these: cited from earlier work.
Series [6] deals with CXCR1 and CXCR2. The note with it: CXCR1 over CXCR2; cited from earlier work.
Series [7] deals with ischemia-reperfusion injury. The conditions noted are these: clinical studies; cited from earlier work.
Series [8] deals with HER-2 negative metastatic breast cancer. The conditions noted are these: phase I, in combination with paclitaxel chemotherapy; cited from earlier work.
The test system of series [9] is triple negative breast cancer. The conditions noted are these: phase II, in combination with paclitaxel; cited from earlier work.
Series [10] has as its system thyroid cancer tumor cells. The conditions noted are these: in vitro; cited from earlier work.
The test system of series [11] is CMML CD34+ cells. The series can be described thus: Methylcellulose colony formation assay (CMML cells). The format is cell-based, human. The conditions noted are these: methylcellulose with CXCL8. On the procedure:
as §2

Series [12] has as its system CMML CD34+ cells. The series can be described thus: CD34+ liquid culture, cell output/proliferation (CMML cells). The format is cell-based, human. The note with it: liquid culture with CXCL8. On the procedure: as §2

Consider `C[C@@H](C(=O)NS(C)(=O)=O)c1ccc(OS(=O)(=O)C(F)(F)F)cc1` [ladarixin, 4-[(2 R)-1-oxo-1-(methanesulfonamido)propan-2-yl]phenyl trifluoromethanesulfonate], for which, in [1], the “proliferation of wildtype CD34+ cells in liquid culture” value is listed as “restored”. The neutrophil-dependent airway inflammation entry in series [2] was “improves neutrophil-dependent airway inflammation”. Besides, in [3], the TAM polarization result was “repolarized TAMs to a M1 phenotype” and the tumor cell migration entry is “inhibited tumor cell migration”. The “colony forming capacity of wildtype CD34+ cells (total colony output)” value in series [4] is recorded as “restored”. Further, the “antitumor activity of combination” value in series [5] (mouse PDAC model, ladarixin combined with an anti-PD-1 monoclonal antibody) was “improved antitumor activity compared to either agent alone”. Further, the “activity in PDAC model” value in series [5] (mouse model, ladarixin) is reported as “significant activity”.
With `CC(C)Cc1ccc([C@@H](C)C(=O)NS(C)(=O)=O)cc1` [reparixin, R-(−)-2-(4-isobutylphenyl)propionyl methansulfonamide], in series [6], the “potency to inhibit CXCR1 activity relative to CXCR2” value was 400 fold. For the same compound, the “neutrophil recruitment and inflammatory injury in ischemia-reperfusion” value in [7] was “effectively regulate neutrophil recruitment and attenuate inflammatory injury”. In addition, in series [1], the “proliferation of wildtype CD34+ cells in liquid culture” value is “restored”. Further, the tolerability result in series [8] is listed as “well tolerated”. The “healthy donor CD34+ colony formation in presence of IGRAN supernatant” value in [4] (IGRAN supernatant plus reparixin 10 mM (so in the source), FIG. 6G) is listed as “blocked the inhibitory effects of this supernatant”. Further, the “colony forming capacity of wildtype CD34+ cells (total colony output)” value in [4] was “restored”. Further, the “clinical benefit compared to paclitaxel alone” value in series [9] is recorded as “no additional clinical benefit”. Moreover, the “direct anti-tumor activity, tumor cell proliferation” value in [10] is listed as “inhibiting tumor cell proliferation”.
For the compound “CXCL8: Interleukin 8 (IL-8 or CXCL8) chemokine from Peprotech, added to CD34+ cultures”, the “cord blood CD34+ cell proliferation” value in series [1] (liquid culture with indicated doses of CXCL8, FIG. 6A) was “dose-dependent inhibition”. Also, the “adult healthy donor bone marrow CD34+ cell proliferation” value in series [1] (liquid culture, CXCL8 10 ng/mL, 72 hours, FIG. 12A, 12E) is listed as “decreased”. Besides, the “colony number / colony forming capacity of healthy cord blood or bone marrow CD34+ cells” value in series [4] (14 days, CXCL8, CFU-GM and CFU-E affected, FIG. 6B, 6F) is reported as “decrease in colony number; also recorded: decreased colony forming capacity”. Also, in [11], the “CMML CD34+ cell proliferation in colony formation assays” value is “not affected”. Moreover, the “CMML CD34+ cell proliferation” value in series [12] is “failed to inhibit”.
